Literature values, collected in patent US20220241165A1, “ORAL CARE COMPOSITIONS COMPRISING OXALIC ACID” (The Procter & Gamble Company, priority 2021, published 2022).

- pKa: 4.1
SMILES: O=C(O)C(=O)O [oxalate ion]
